Measurements taken from patent US9695155B2, “Herbicidal substituted pyrimidinyloxy benzene compounds” (E. I. DU PONT DE NEMOURS AND COMPANY, priority 2013, dated 2017).

Assays:
kochia [1] = assay: Test A postemergence; type: in vivo, Kochia scoparia
Excerpt: (§1) Seeds of plant species selected from barnyardgrass (Echinochloa crus-galli), kochia (Kochia scoparia), ragweed (common ragweed, Ambrosia elatior), Italian ryegrass (Lolium multiflorum), large (Lg) crabgrass (Digitaria sanguinalis), giant foxtail (Setaria faberii), morningglory (Ipomoea spp.), pigweed (Amaranthus retroflexus), velvetleaf (Abutilon theophrasti), wheat (Triticum aestivum), and corn (Zea mays) were planted into a blend of loam soil and sand and treated preemergence with a directed soil spray using test chemicals formulated in a non-phytotoxic solvent mixture which included a surfactant.
(§2) At the same time, plants selected from these crop and weed species and also blackgrass (Alopecurus myosuroides), and galium (catchweed bedstraw, Galium aparine) were planted in pots containing the same blend of loam soil and sand and treated with postemergence applications of test chemicals formulated in the same manner. Plants ranged in height from 2 to 10 cm and were in the one- to two-leaf stage for the postemergence treatment. Treated plants and untreated controls were maintained in a greenhouse for approximately 10 days, after which time all treated plants were compared to untreated controls and visually evaluated for injury. Plant response ratings, summarized in Table A, are based on a 0 to 100 scale where 0 is no effect and 100 is complete control. A dash (-) response means no test result.

rice = assay: Test B flooded paddy test; type: in vivo, Oryza sativa; conditions: Flood, 250 g ai/ha; 0 to 100 scale where 0 is no effect and 100 is complete control
Procedure, shortened: (§3)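 Scores from 0 (no effect) to 100 (complete control) are visual comparisons with controls, taken 13 to 15 days after compound was applied into floodwater 3 cm deep around 2-leaf plants.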

sedge, umbrella = assay: Test B flooded paddy test; type: in vivo, Cyperus difformis; conditions: Flood, 250 g ai/ha; 0 to 100 scale where 0 is no effect and 100 is complete control
Procedure, shortened: as §3

giant foxtail [2] = assay: Test A preemergence; type: in vivo, Setaria faberii; conditions: for Foxtail, Giant plant response rating: 0 to 100 scale, 0 no effect, 100 complete control, approx. 10 days
Procedure, shortened: (§4)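 Visual 0–100 rating (100 = complete control) taken about 10 d post-treatment relative to untreated checks. Preemergence: directed soil spray on sown loam/sand pots. Postemergence: seedlings 2–10 cm, 1–2 leaf. Non-phytotoxic solvent formulation with surfactant.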

pigweed [3] = assay: Test A preemergence; type: in vivo, Amaranthus retroflexus; conditions: for Pigweed plant response rating: 0 to 100 scale, 0 no effect, 100 complete control, approx. 10 days
Procedure, shortened: as §4

barnyardgrass [4] = assay: Test B flooded paddy test; type: in vivo, Echinochloa crus-galli; conditions: Flood, 250 g ai/ha; 0 to 100 scale where 0 is no effect and 100 is complete control
Procedure, shortened: as §3

ragweed [5] = assay: Test A preemergence; type: in vivo, Ambrosia elatior; conditions: for Ragweed plant response rating: 0 to 100 scale, 0 no effect, 100 complete control, approx. 10 days
Excerpt: as §1, §2

barnyardgrass [6] = assay: Test A preemergence; type: in vivo, Echinochloa crus-galli; conditions: for Barnyardgrass plant response rating: approx. 10 days
Procedure, shortened: as §4

blackgrass = assay: Test A postemergence; type: in vivo, Alopecurus myosuroides
Excerpt: as §1, §2

pigweed [7] = assay: Test A postemergence; type: in vivo, Amaranthus retroflexus
Procedure, shortened: as §4

Italian ryegrass [8] = assay: Test A preemergence; type: in vivo, Lolium multiflorum; conditions: for Ryegrass, Italian plant response rating: 0 to 100 scale, 0 no effect, 100 complete control, approx. 10 days
Excerpt: as §1, §2

corn = assay: Test A postemergence; type: in vivo, Zea mays
Procedure, shortened: as §4

wheat = assay: Test A postemergence; type: in vivo, Triticum aestivum
Procedure, shortened: as §4

giant foxtail [9] = assay: Test A postemergence; type: in vivo, Setaria faberii
Procedure, shortened: as §4

kochia [10] = assay: Test A preemergence; type: in vivo, Kochia scoparia; conditions: for Kochia plant response rating: 0 to 100 scale, 0 no effect, 100 complete control, approx. 10 days
Excerpt: as §1, §2

galium = assay: Test A postemergence; type: in vivo, Galium aparine
Excerpt: as §1, §2

ragweed [11] = assay: Test A postemergence; type: in vivo, Ambrosia elatior
Excerpt: as §1, §2

barnyardgrass [12] = assay: Test A postemergence; type: in vivo, Echinochloa crus-galli
Procedure, shortened: as §4

Heteranthera limosa = assay: Test B flooded paddy test; type: in vivo; conditions: Flood, 250 g ai/ha; 0 to 100 scale where 0 is no effect and 100 is complete control
Procedure, shortened: as §3

Italian ryegrass [13] = assay: Test A postemergence; type: in vivo, Lolium multiflorum
Excerpt: as §1, §2

[14] = 125 g ai/ha, 0 to 100 scale where 0 is no effect and 100 is complete control
[15] = 500 g ai/ha, 0 to 100 scale where 0 is no effect and 100 is complete control
[16] = 1000 g ai/ha, 0 to 100 scale, 0 no effect, 100 complete control

N#Cc1cccc(Oc2ncc(I)cn2)c1-n1cc(I)cn1 [Compound 87]
Plant response rating, Kochia (kochia [1]; [14]): 50
Plant response rating, Kochia (kochia [1]; [15]): 90
Plant response rating, Rice (rice): 0
Plant response rating, Sedge, Umbrella (sedge, umbrella): 0
Plant response rating, Foxtail, Giant (giant foxtail [2]; [14]): 60
Foxtail, Giant plant response rating (giant foxtail [2]; 500 g ai/ha): 70
Plant response rating, Pigweed (pigweed [3]; [14]): 90
Pigweed plant response rating (pigweed [3]; 500 g ai/ha): 100
Plant response rating, Barnyardgrass (barnyardgrass [4]): 0
Plant response rating, Ragweed (ragweed [5]; [14]): 10
Ragweed plant response rating (ragweed [5]; 500 g ai/ha): 20
Plant response rating, Barnyardgrass (barnyardgrass [6]; [14]): 0
Barnyardgrass plant response rating (barnyardgrass [6]; 500 g ai/ha, 0 to 100 scale, 0 no effect, 100 complete control): 10
Plant response rating, Blackgrass (blackgrass; [14]): 40
Plant response rating, Blackgrass (blackgrass; [15]): 50
Plant response rating, Pigweed (pigweed [7]; [14]): 60
Plant response rating, Pigweed (pigweed [7]; [15]): 100
Plant response rating, Ryegrass, Italian (Italian ryegrass [8]; [14]): 0
Ryegrass, Italian plant response rating (Italian ryegrass [8]; 500 g ai/ha): 0
Plant response rating, Corn (corn; [14]): 20
Plant response rating, Corn (corn; [15]): 20
Plant response rating, Wheat (wheat; [14]): 0
Plant response rating, Wheat (wheat; [15]): 0
Plant response rating, Foxtail, Giant (giant foxtail [9]; [14]): 20
Plant response rating, Foxtail, Giant (giant foxtail [9]; [15]): 60
Plant response rating, Kochia (kochia [10]; [14]): 30
Kochia plant response rating (kochia [10]; 500 g ai/ha): 60
Plant response rating, Galium (galium; [14]): 60
Plant response rating, Galium (galium; [15]): 90
Plant response rating, Ragweed (ragweed [11]; [14]): 50
Plant response rating, Ragweed (ragweed [11]; [15]): 70
Plant response rating, Barnyardgrass (barnyardgrass [12]; [14]): 20
Plant response rating, Barnyardgrass (barnyardgrass [12]; [15]): 20
Plant response rating, Ducksalad (Heteranthera limosa): 0
Plant response rating, Ryegrass, Italian (Italian ryegrass [13]; [14]): 30
Plant response rating, Ryegrass, Italian (Italian ryegrass [13]; [15]): 40

Fc1cccc(Oc2ncc(Cl)cn2)c1-n1cc(C2CCCCC2)nn1 [Compound 102]
Plant response rating, Kochia (kochia [1]; [16]): 30
Foxtail, Giant plant response rating (giant foxtail [2]; 1000 g ai/ha): 100
Pigweed plant response rating (pigweed [3]; 1000 g ai/ha): 20
Ragweed plant response rating (ragweed [5]; 1000 g ai/ha): 0
Plant response rating, Barnyardgrass (barnyardgrass [6]; [16]): 50
Plant response rating, Blackgrass (blackgrass; [16]): 40
Plant response rating, Pigweed (pigweed [7]; [16]): 80
Ryegrass, Italian plant response rating (Italian ryegrass [8]; 1000 g ai/ha): 0
Plant response rating, Corn (corn; [16]): 20
Plant response rating, Wheat (wheat; [16]): 0
Plant response rating, Foxtail, Giant (giant foxtail [9]; [16]): 40
Kochia plant response rating (kochia [10]; 1000 g ai/ha): 0
Plant response rating, Galium (galium; [16]): 70
Plant response rating, Ragweed (ragweed [11]; [16]): 20
Plant response rating, Barnyardgrass (barnyardgrass [12]; [16]): 50
Plant response rating, Ryegrass, Italian (Italian ryegrass [13]; [16]): 0

O=Cc1cn(-c2c(F)cccc2Oc2ncc(Cl)cn2)nn1 [Compound 139]
Plant response rating, Kochia (kochia [1]; [16]): 0
Foxtail, Giant plant response rating (giant foxtail [2]; 1000 g ai/ha): 0
Pigweed plant response rating (pigweed [3]; 1000 g ai/ha): 50
Ragweed plant response rating (ragweed [5]; 1000 g ai/ha): 0
Barnyardgrass plant response rating (barnyardgrass [6]; [16]): 0
Plant response rating, Blackgrass (blackgrass; [16]): 0
Plant response rating, Pigweed (pigweed [7]; [16]): 30
Ryegrass, Italian plant response rating (Italian ryegrass [8]; 1000 g ai/ha): 0
Plant response rating, Corn (corn; [16]): 20
Plant response rating, Wheat (wheat; [16]): 0
Plant response rating, Foxtail, Giant (giant foxtail [9]; [16]): 0
Kochia plant response rating (kochia [10]; 1000 g ai/ha): 0
Plant response rating, Galium (galium; [16]): 10
Plant response rating, Ragweed (ragweed [11]; [16]): 0
Plant response rating, Barnyardgrass (barnyardgrass [12]; [16]): 0
Plant response rating, Ryegrass, Italian (Italian ryegrass [13]; [16]): 0
